Results from PubChem BioAssay AID2060894 (Molecular Pharmacology Branch, DTP, NCI, 2025).
Several values for one entry are separate records, joined by “and”; a condition that tells them apart may be missing. Equal values may be shown once. One block for each compound: values may come before it.

Tested on: K12877-001-R-J1-PDC complex spheroid viability
Assay: Anticancer human tumor K12877-001-R-J1-PDC patient-derived lung adenocarcinoma cell line growth inhibition [RAS]
Conditions: for viability, T/C: stronger effect = lower value
How it was run: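 Agents were tested in combination matrices in half-log decrements from a top concentration at or near clinical Cmax (10 microM if undetermined). Targets were multi-cell spheroids of tumour lines plus HUVEC and MSC stromal cells.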

[1] = curve of first compound, second compound 0.000949 µM
[2] = curve of first compound, second compound 0.003 µM
[3] = curve of first compound, second compound 0.00949 µM
[4] = curve of first compound, second compound 0.03 µM
[5] = curve of first compound, second compound 0.0949 µM
[6] = curve of first compound, second compound 0.3 µM
[7] = second compound 0.000949 µM, first compound 0.0316 µM
[8] = second compound 0.000949 µM, first compound 0.1 µM
[9] = second compound 0.000949 µM, first compound 0.316 µM
[10] = second compound 0.000949 µM, first compound 1 µM
[11] = second compound 0.000949 µM, first compound 3.16 µM
[12] = second compound 0.000949 µM, first compound 10 µM
[13] = second compound 0.003 µM, first compound 0.0316 µM
[14] = second compound 0.003 µM, first compound 0.1 µM
[15] = second compound 0.003 µM, first compound 0.316 µM
[16] = second compound 0.003 µM, first compound 1 µM
[17] = second compound 0.003 µM, first compound 3.16 µM
[18] = second compound 0.003 µM, first compound 10 µM
[19] = second compound 0.00949 µM, first compound 0.0316 µM
[20] = second compound 0.00949 µM, first compound 0.1 µM
[21] = second compound 0.00949 µM, first compound 0.316 µM
[22] = second compound 0.00949 µM, first compound 1 µM
[23] = second compound 0.00949 µM, first compound 3.16 µM
[24] = second compound 0.00949 µM, first compound 10 µM
[25] = second compound 0.03 µM, first compound 0.0316 µM
[26] = second compound 0.03 µM, first compound 0.1 µM
[27] = second compound 0.03 µM, first compound 0.316 µM
[28] = second compound 0.03 µM, first compound 1 µM
[29] = second compound 0.03 µM, first compound 3.16 µM
[30] = second compound 0.03 µM, first compound 10 µM
[31] = second compound 0.0949 µM, first compound 0.0316 µM
[32] = second compound 0.0949 µM, first compound 0.1 µM
[33] = second compound 0.0949 µM, first compound 0.316 µM
[34] = second compound 0.0949 µM, first compound 1 µM
[35] = second compound 0.0949 µM, first compound 3.16 µM
[36] = second compound 0.0949 µM, first compound 10 µM
[37] = second compound 0.3 µM, first compound 0.0316 µM
[38] = second compound 0.3 µM, first compound 0.1 µM
[39] = second compound 0.3 µM, first compound 0.316 µM
[40] = second compound 0.3 µM, first compound 1 µM
[41] = second compound 0.3 µM, first compound 3.16 µM
[42] = second compound 0.3 µM, first compound 10 µM
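Note: spheroids exposed to agents for one week before readout.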
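Throughout, for viability, T/C: tumour cells co-cultured with HUVEC and mesenchymal stem cells in spheroids.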

Compound: O=C(c1ccc(F)c(F)c1Nc1ccc(I)cc1F)N1CC(O)([C@@H]2CCCCN2)C1
viability, T/C (compound 0.00316 µM): 109% [middle of 4 runs] | viability, T/C (compound 0.01 µM): 93.5% [middle of 4 runs] | viability, T/C (compound 0.0316 µM): 94.9% [middle of 4 runs] | viability, T/C (compound 0.1 µM): 81.3% [middle of 4 runs] | viability, T/C (compound 0.316 µM): 81.6% [middle of 4 runs] | IC50 (curve of compound): > 1 µM and 0.496 µM

Compound: C=CC(=O)N1CCN(c2nc(OCC3CCCN3C)nc3c(F)c(-c4nc(N)cc(C)c4C(F)(F)F)c(Cl)cc23)C(C)C1 (centres undefined) + CCn1c(-c2cccnc2C(C)OC)c2c3cc(ccc31)N1CCOC(CC(NC(=O)C(C(C)C)N(C)C(=O)C3(F)CCN(C(=O)C#CC(C)(C)N(C)C)CC3)C(=O)N3CCCC(N3)C(=O)OCC(C)(C)C2)C1
IC50 [1]: > 1 µM | IC50 [2]: > 1 µM | IC50 [3]: > 1 µM | IC50 [4]: > 1 µM | IC50 [5]: > 1 µM | IC50 [6]: > 1 µM | viability, T/C (second compound 0.000949 µM, first compound 0.00316 µM): 82% | viability, T/C (second compound 0.000949 µM, first compound 0.01 µM): 83% | viability, T/C [7]: 83.5% | viability, T/C [8]: 74.2% | viability, T/C [9]: 76% | viability, T/C [10]: 77.8% | viability, T/C (second compound 0.003 µM, first compound 0.00316 µM): 78% | viability, T/C (second compound 0.003 µM, first compound 0.01 µM): 61.3% | viability, T/C [13]: 73.6% | viability, T/C [14]: 81.1% | viability, T/C [15]: 86% | viability, T/C [16]: 71.1% | viability, T/C (second compound 0.00949 µM, first compound 0.00316 µM): 75.4% | viability, T/C (second compound 0.00949 µM, first compound 0.01 µM): 83.9% | viability, T/C [19]: 77.5% | viability, T/C [20]: 85.3% | viability, T/C [21]: 85.5% | viability, T/C [22]: 78.6% | viability, T/C (second compound 0.03 µM, first compound 0.00316 µM): 77.4% | viability, T/C (second compound 0.03 µM, first compound 0.01 µM): 76.1% | viability, T/C [25]: 77.6% | viability, T/C [26]: 75.9% | viability, T/C [27]: 81.7% | viability, T/C [28]: 73.3% | viability, T/C (second compound 0.0949 µM, first compound 0.00316 µM): 83.4% | viability, T/C (second compound 0.0949 µM, first compound 0.01 µM): 70.5% | viability, T/C [31]: 79.7% | viability, T/C [32]: 76.1% | viability, T/C [33]: 73.8% | viability, T/C [34]: 72.8% | viability, T/C (second compound 0.3 µM, first compound 0.00316 µM): 58.1% | viability, T/C (second compound 0.3 µM, first compound 0.01 µM): 67% | viability, T/C [37]: 66.3% | viability, T/C [38]: 68.5% | viability, T/C [39]: 70% | viability, T/C [40]: 66.8%

Continued by falling IC50 [1], values first:

IC50 [1]: 7.69 µM | IC50 [2]: 4.36 µM | IC50 [3]: 1.91 µM | IC50 [4]: 1.19 µM | IC50 [5]: 0.717 µM | IC50 [6]: 0.36 µM
Compound: CC(C)NCC(C(=O)N1CCN(c2ncnc3c2C(C)CC3O)CC1)c1ccc(Cl)cc1 (centres undefined) + CCn1c(-c2cc(N3CCN(C)CC3)cnc2C(C)OC)c2c3cc(ccc31)-c1csc(n1)CC(NC(=O)C1CC1C)C(=O)N1CCCC(N1)C(=O)OCC(C)(C)C2
viability, T/C [7]: 91.9% | viability, T/C [8]: 90.3% | viability, T/C [9]: 80.9% | viability, T/C [10]: 104% | viability, T/C [11]: 69.3% | viability, T/C [12]: 44.3% | viability, T/C [13]: 73.9% | viability, T/C [14]: 82.8% | viability, T/C [15]: 78.3% | viability, T/C [16]: 88% | viability, T/C [17]: 58% | viability, T/C [18]: 29.3% | viability, T/C [19]: 60.9% | viability, T/C [20]: 74.3% | viability, T/C [21]: 74.4% | viability, T/C [22]: 74.9% | viability, T/C [23]: 33.4% | viability, T/C [24]: 19.6% | viability, T/C [25]: 101% | viability, T/C [26]: 103% | viability, T/C [27]: 94.2% | viability, T/C [28]: 52.9% | viability, T/C [29]: 28.4% | viability, T/C [30]: 17.1% | viability, T/C [31]: 106% | viability, T/C [32]: 104% | viability, T/C [33]: 75.8% | viability, T/C [34]: 39.5% | viability, T/C [35]: 18.8% | viability, T/C [36]: 12.7% | viability, T/C [37]: 101% | viability, T/C [38]: 78.6% | viability, T/C [39]: 55% | viability, T/C [40]: 27.2% | viability, T/C [41]: 17.1% | viability, T/C [42]: 10.9%

IC50 [1]: 1.31 µM | IC50 [2]: 1.29 µM | IC50 [3]: 1.38 µM | IC50 [4]: 1.51 µM | IC50 [5]: 1.27 µM | IC50 [6]: 1.1 µM
Compound: CCC(CC)c1cc(NC2CCC(N)C2)n2nccc2n1 (centres undefined) + CCn1c(-c2cc(N3CCN(C)CC3)cnc2C(C)OC)c2c3cc(ccc31)-c1csc(n1)CC(NC(=O)C1CC1C)C(=O)N1CCCC(N1)C(=O)OCC(C)(C)C2
viability, T/C [7]: 87.7% | viability, T/C [8]: 80% | viability, T/C [9]: 84.6% | viability, T/C [10]: 64.7% | viability, T/C [11]: 1.77% | viability, T/C [12]: 0.95% | viability, T/C [13]: 65.8% | viability, T/C [14]: 69.4% | viability, T/C [15]: 66.5% | viability, T/C [16]: 64% | viability, T/C [17]: 1.46% | viability, T/C [18]: 0.76% | viability, T/C [19]: 62% | viability, T/C [20]: 65.9% | viability, T/C [21]: 71.3% | viability, T/C [22]: 76.7% | viability, T/C [23]: 1.47% | viability, T/C [24]: 0.9% | viability, T/C [25]: 95.4% | viability, T/C [26]: 92.6% | viability, T/C [27]: 99.5% | viability, T/C [28]: 77.5% | viability, T/C [29]: 1.04% | viability, T/C [30]: 0.76% | viability, T/C [31]: 119% | viability, T/C [32]: 107% | viability, T/C [33]: 102% | viability, T/C [34]: 63.6% | viability, T/C [35]: 1.11% | viability, T/C [36]: 0.76% | viability, T/C [37]: 94.6% | viability, T/C [38]: 98.1% | viability, T/C [39]: 86.2% | viability, T/C [40]: 55.2% | viability, T/C [41]: 0.75% | viability, T/C [42]: 0.8%

IC50 [1]: 0.202 µM | IC50 [2]: 0.126 µM | IC50 [3]: 0.134 µM | IC50 [4]: 0.107 µM | IC50 [5]: 0.0808 µM | IC50 [6]: 0.0979 µM
Compound: CC1(O)CCCC1n1c(=O)c(C(F)F)cc2cnc(NC3CCN(S(C)(=O)=O)CC3)nc21 (centres undefined) + CCn1c(-c2cccnc2C(C)OC)c2c3cc(ccc31)N1CCOC(CC(NC(=O)C(C(C)C)N(C)C(=O)C3(F)CCN(C(=O)C#CC(C)(C)N(C)C)CC3)C(=O)N3CCCC(N3)C(=O)OCC(C)(C)C2)C1
viability, T/C [7]: 89.8% | viability, T/C [8]: 61.3% | viability, T/C [9]: 31.9% | viability, T/C [10]: 38.7% | viability, T/C [11]: 23.8% | viability, T/C [12]: 2.35% | viability, T/C [13]: 76% | viability, T/C [14]: 46.7% | viability, T/C [15]: 31.2% | viability, T/C [16]: 34.5% | viability, T/C [17]: 21.3% | viability, T/C [18]: 2.96% | viability, T/C [19]: 71.9% | viability, T/C [20]: 43.5% | viability, T/C [21]: 33.3% | viability, T/C [22]: 36.8% | viability, T/C [23]: 33.7% | viability, T/C [24]: 2.22% | viability, T/C [25]: 66.2% | viability, T/C [26]: 45.8% | viability, T/C [27]: 32.1% | viability, T/C [28]: 34.5% | viability, T/C [29]: 27.8% | viability, T/C [30]: 2.85% | viability, T/C [31]: 55.7% | viability, T/C [32]: 56.5% | viability, T/C [33]: 27.5% | viability, T/C [34]: 27.9% | viability, T/C [35]: 33.9% | viability, T/C [36]: 2.46% | viability, T/C [37]: 68.5% | viability, T/C [38]: 51.2% | viability, T/C [39]: 27.1% | viability, T/C [40]: 25.7% | viability, T/C [41]: 20.3% | viability, T/C [42]: 2.35%
